Assay results: patent US6124269A, “2-Halo-6-O-substituted ketolide derivatives” (priority 1998, dated 2000)
In brackets after ≈: the same amount, converted by molar mass.

Experiments:
Assay type in all cases: cell-based
[1] = tested on: Staphylococcus aureus CMX 642A; assay: In vitro agar dilution MIC, organism code DD; details: Table 1B, unit assumed
How it was run: (§1)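 Agar dilution on Brain Heart Infusion agar holding twelve successive aqueous dilutions of compound; plates inoculated by replicator with 1:100 culture dilutions (1:10 for slow growers such as Streptococcus). Incubated 35-37° C for 20 to 24 hours. MIC is the lowest concentration giving no growth, slight haze or sparse colonies versus growth control.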

[2] = tested on: Staphylococcus aureus CMX 553; assay: In vitro agar dilution MIC, organism code FF; details: Table 1B, unit assumed
How it was run: as §1

Candida albicans CCH 442 = assay: In vitro agar dilution MIC, organism code TT; details: Table 1B, unit assumed
How it was run: as §1

[3] = tested on: Staphylococcus epidermidis 3519; assay: In vitro agar dilution MIC, organism code HH; details: Table 1B, in µg/mL (unit assumed)
How it was run: as §1

[4] = tested on: Nocardia asteroides ATCC 9970; assay: In vitro agar dilution MIC, organism code VV; details: Table 1B, in µg/mL (unit assumed)
How it was run: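 Agar plates of BHI carried graded compound concentrations and were inoculated with bacterial suspensions diluted 1:100, or 1:10 for slow-growing streptococci. After 20 to 24 hours of incubation at 35-37° C, the minimum inhibitory concentration was scored visually against a compound-free plate.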

[5] = tested on: Staphylococcus aureus ATCC 6538P; assay: In vitro agar dilution MIC, organism code AA; details: Table 1B, unit assumed
How it was run: as §1

[6] = tested on: Staphylococcus aureus A-5278; assay: In vitro agar dilution MIC, organism code CC; details: Table 1B, unit assumed
How it was run: as §1

[7] = tested on: Streptococcus pneumoniae ATCC 6303; assay: In vitro agar dilution MIC, organism code XX; details: Table 1B, unit assumed
How it was run: as §1

[8] = tested on: Streptococcus pyogenes PIU 2548; assay: In vitro agar dilution MIC, organism code NN; details: Table 1B, unit assumed
How it was run: as §1

[9] = tested on: Streptococcus pneumoniae GYR 1171; assay: In vitro agar dilution MIC, organism code YY; details: Table 1B, unit assumed
How it was run: as §1

[10] = tested on: Streptococcus pneumoniae 5979; assay: In vitro agar dilution MIC, organism code ZZ; details: Table 1B, unit assumed
How it was run: as §1

[11] = tested on: Staphylococcus aureus NCTC10649M; assay: In vitro agar dilution MIC, organism code EE; details: Table 1B, unit assumed
How it was run: as §1

Escherichia coli DC-2 = assay: In vitro agar dilution MIC, organism code SS; details: Table 1B, unit assumed
How it was run: as §1

[12] = tested on: Streptococcus pyogenes EES61; assay: In vitro agar dilution MIC, organism code LL; details: Table 1B, unit assumed
How it was run: as §1

[13] = tested on: Enterococcus faecium ATCC 8043; assay: In vitro agar dilution MIC, organism code II; details: Table 1B, unit assumed
How it was run: as §1

[14] = tested on: Streptococcus pyogenes 930; assay: In vitro agar dilution MIC, organism code MM; details: Table 1B, unit assumed
How it was run: as §1

[15] = tested on: Micrococcus luteus ATCC 4698; assay: In vitro agar dilution MIC, organism code PP; details: Table 1B, in µg/mL (unit assumed)
How it was run: as §1

Escherichia coli SS = assay: In vitro agar dilution MIC, organism code RR; details: Table 1B, in µg/mL (unit assumed)
How it was run: as §1

[16] = tested on: Streptococcus pneumoniae 5649; assay: In vitro agar dilution MIC, organism code ZZA; details: Table 1B, unit assumed
How it was run: as §1

[17] = tested on: Staphylococcus aureus A5177; assay: In vitro agar dilution MIC, organism code BB; details: Table 1B, in µg/mL (unit assumed)
How it was run: as §1

[18] = tested on: Streptococcus agalactiae CMX 508; assay: In vitro agar dilution MIC, organism code KK; details: Table 1B, unit assumed
How it was run: as §1

[19] = tested on: Mycobacterium smegmatis ATCC 114; assay: In vitro agar dilution MIC, organism code UU; details: Table 1B, in µg/mL (unit assumed)
How it was run: as §1

[20] = tested on: Streptococcus bovis A-5169; assay: In vitro agar dilution MIC, organism code JJ; details: Table 1B, unit assumed
How it was run: as §1

[21] = tested on: Haemophilis influenzae DILL AMP R; assay: In vitro agar dilution MIC, organism code WW; details: Table 1B, unit assumed
How it was run: as §1

Escherichia coli JUHL = assay: In vitro agar dilution MIC, organism code QQ; details: Table 1B, in µg/mL (unit assumed)
How it was run: as §1

[22] = tested on: Staphylococcus aureus 1775; assay: In vitro agar dilution MIC, organism code GG; details: Table 1B, unit assumed
How it was run: as §1

[23] = tested on: Micrococcus luteus ATCC 9341; assay: In vitro agar dilution MIC, organism code OO; details: Table 1B, unit assumed
How it was run: as §1

| SMILES | MIC [1] | MIC [2] | MIC (Candida albicans CCH 442) | MIC [3] | MIC [4] | MIC [5] | MIC [6] | MIC [7] | MIC [8] | MIC [9] | MIC [10] | MIC [11] | MIC (Escherichia coli DC-2) | MIC [12] | MIC [13] | MIC [14] | MIC [15] | MIC (Escherichia coli SS) | MIC [16] | MIC [17] | other results |
| --- | --- | --- | --- | --- | --- | --- | --- | --- | --- | --- | --- | --- | --- | --- | --- | --- | --- | --- | --- | --- | --- |
| CC[C@H]1OC(=O)[C@@](C)(F)C(=O)[C@H](C)[C@@H](O[C@@H]2O[C@H](C)C[C@H](N(C)C)[C@H]2O)[C@](C)(OC/C=C/c2cnc3ccc(C(N)=O)cc3c2)C[C@@H](C)C(=O)[C@H](C)[C@H]2NC(=O)O[C@@]21C [Example 15] | 0.05 µg/mL (≈ 0.0605 µM) | 0.05 µg/mL (≈ 0.0605 µM) | > 100 µg/mL | 0.05 | 0.05 | 0.05 µg/mL (≈ 0.0605 µM) | > 100 µg/mL | ≤ 0.004 µg/mL | 0.1 µg/mL (≈ 0.121 µM) | ≤ 0.004 µg/mL | 0.5 µg/mL (≈ 0.605 µM) | 0.05 µg/mL (≈ 0.0605 µM) | 12.5 µg/mL (≈ 15.1 µM) | 0.01 µg/mL (≈ 0.0121 µM) | 0.05 µg/mL (≈ 0.0605 µM) | 0.1 µg/mL (≈ 0.121 µM) | 0.05 | 0.2 | 0.25 µg/mL (≈ 0.302 µM) | 0.05 | MIC [18]: 0.01 µg/mL (≈ 0.0121 µM); MIC [19]: 0.39; MIC [20]: 0.01 µg/mL (≈ 0.0121 µM); MIC [21]: 4 µg/mL (≈ 4.84 µM); MIC (Escherichia coli JUHL): 25; MIC [22]: > 100 µg/mL; MIC [23]: 0.01 µg/mL (≈ 0.0121 µM) |
| CC[C@H]1OC(=O)[C@@](C)(F)C(=O)[C@H](C)[C@@H](O[C@@H]2O[C@H](C)C[C@H](N(C)C)[C@H]2O)[C@](C)(OC/C=C/c2cnc3ccc(NC)cc3c2)C[C@@H](C)C(=O)[C@H](C)[C@H]2NC(=O)O[C@@]21C [Example 16] | 0.05 µg/mL (≈ 0.0615 µM) | 0.05 µg/mL (≈ 0.0615 µM) | > 100 µg/mL | 0.05 | 0.01 | 0.05 µg/mL (≈ 0.0615 µM) | > 100 µg/mL | 0.03 µg/mL (≈ 0.0369 µM) | 0.05 µg/mL (≈ 0.0615 µM) | 0.03 µg/mL (≈ 0.0369 µM) | 1 µg/mL (≈ 1.23 µM) | 0.05 µg/mL (≈ 0.0615 µM) | 50 µg/mL (≈ 61.5 µM) | 0.01 µg/mL (≈ 0.0123 µM) | 0.02 µg/mL (≈ 0.0246 µM) | 0.39 µg/mL (≈ 0.48 µM) | 0.05 | 0.2 | 0.25 µg/mL (≈ 0.308 µM) | 0.05 | MIC [18]: 0.01 µg/mL (≈ 0.0123 µM); MIC [19]: 0.39; MIC [20]: ≤ 0.005 µg/mL; MIC [21]: 2 µg/mL (≈ 2.46 µM); MIC (Escherichia coli JUHL): 50; MIC [22]: > 100 µg/mL; MIC [23]: 0.01 µg/mL (≈ 0.0123 µM) |
| CC[C@H]1OC(=O)[C@@](C)(F)C(=O)[C@H](C)[C@@H](O[C@@H]2O[C@H](C)C[C@H](N(C)C)[C@H]2O)[C@](C)(OC/C=C/c2cnc3ccc(C=O)cc3c2)C[C@@H](C)C(=O)[C@H](C)[C@H]2NC(=O)O[C@@]21C [Example 17] | 0.1 µg/mL (≈ 0.123 µM) | 0.1 µg/mL (≈ 0.123 µM) | > 100 µg/mL | 0.1 | 0.02 | 0.05 µg/mL (≈ 0.0616 µM) | > 100 µg/mL | 0.03 µg/mL (≈ 0.0369 µM) | 0.2 µg/mL (≈ 0.246 µM) | 0.015 µg/mL (≈ 0.0185 µM) | 1 µg/mL (≈ 1.23 µM) | 0.2 µg/mL (≈ 0.246 µM) | 100 µg/mL (≈ 123 µM) | 0.02 µg/mL (≈ 0.0246 µM) | 0.05 µg/mL (≈ 0.0616 µM) | 0.78 µg/mL (≈ 0.961 µM) | 0.05 | 0.78 | 0.5 µg/mL (≈ 0.616 µM) | 0.1 | MIC [18]: 0.02 µg/mL (≈ 0.0246 µM); MIC [19]: 0.39; MIC [20]: 0.01 µg/mL (≈ 0.0123 µM); MIC [21]: 2 µg/mL (≈ 2.46 µM); MIC (Escherichia coli JUHL): 100; MIC [22]: > 100 µg/mL; MIC [23]: 0.02 µg/mL (≈ 0.0246 µM) |
| CC[C@H]1OC(=O)[C@@](C)(F)C(=O)[C@H](C)[C@@H](O[C@@H]2O[C@H](C)C[C@H](N(C)C)[C@H]2O)[C@](C)(OC/C=C/c2cnc3ccc(C=NO)cc3c2)C[C@@H](C)C(=O)[C@H](C)[C@H]2NC(=O)O[C@@]21C [Example 18] | 0.05 µg/mL (≈ 0.0605 µM) | 0.05 µg/mL (≈ 0.0605 µM) | > 100 µg/mL | 0.05 | 0.01 | 0.02 µg/mL (≈ 0.0242 µM) | 50 µg/mL (≈ 60.5 µM) | 0.015 µg/mL (≈ 0.0181 µM) | 0.02 µg/mL (≈ 0.0242 µM) | 0.015 µg/mL (≈ 0.0181 µM) | 0.25 µg/mL (≈ 0.302 µM) | 0.05 µg/mL (≈ 0.0605 µM) | 50 µg/mL (≈ 60.5 µM) | ≤ 0.005 µg/mL | 0.02 µg/mL (≈ 0.0242 µM) | 0.2 µg/mL (≈ 0.242 µM) | 0.02 | 0.2 | 0.25 µg/mL (≈ 0.302 µM) | 0.05 | MIC [18]: 0.01 µg/mL (≈ 0.0121 µM); MIC [19]: 0.78; MIC [20]: ≤ 0.005 µg/mL; MIC [21]: 2 µg/mL (≈ 2.42 µM); MIC (Escherichia coli JUHL): 25; MIC [22]: 50 µg/mL (≈ 60.5 µM); MIC [23]: 0.01 µg/mL (≈ 0.0121 µM) |
| CC[C@H]1OC(=O)[C@@](C)(F)C(=O)[C@H](C)[C@@H](O[C@@H]2O[C@H](C)C[C@H](N(C)C)[C@H]2O)[C@](C)(OC/C=C/c2cnc3ccc(C=NN)cc3c2)C[C@@H](C)C(=O)[C@H](C)[C@H]2NC(=O)O[C@@]21C [Example 19] | 0.2 µg/mL (≈ 0.242 µM) | 0.2 µg/mL (≈ 0.242 µM) | > 100 µg/mL | 0.2 | 0.02 | 0.1 µg/mL (≈ 0.121 µM) | > 100 µg/mL | 0.06 µg/mL (≈ 0.0726 µM) | 0.2 µg/mL (≈ 0.242 µM) | 0.06 µg/mL (≈ 0.0726 µM) | 1 µg/mL (≈ 1.21 µM) | 0.2 µg/mL (≈ 0.242 µM) | 100 µg/mL (≈ 121 µM) | 0.02 µg/mL (≈ 0.0242 µM) | 0.05 µg/mL (≈ 0.0605 µM) | 1.56 µg/mL (≈ 1.89 µM) | 0.1 | 0.78 | 0.5 µg/mL (≈ 0.605 µM) | 0.2 | MIC [18]: 0.02 µg/mL (≈ 0.0242 µM); MIC [19]: 0.78; MIC [20]: ≤ 0.005 µg/mL; MIC [21]: 2 µg/mL (≈ 2.42 µM); MIC (Escherichia coli JUHL): 100; MIC [22]: > 100 µg/mL; MIC [23]: 0.02 µg/mL (≈ 0.0242 µM) |
